Measurements: patent publication US6765128B1, “Method of using a pathogen-activatable map kinase to enhance disease resistance in plants” (priority 1998, dated 2004)

Key:
SIPK = details: Zhang & Klessig, 1997; cited from earlier work
48-kD SIPK = experiment: Phosphatase treatment of protein extracts, then in-gel kinase activity assay; type: biochemical, tobacco; details: okadaic acid 1 μM; Na3VO4 1 mM
Experimental: (§1) In-gel kinase activity assay. The in-gel kinase activity assay was performed as described previously (zhang & Klessig, 1997). The relative kinase activity were quantitated using a PhosphorImager (Molecular Dynamics Inc., Sunnyvale, Calif.) and normalized to the level present at the zero time point for the 48-kD kinase, which was given a value of 1.
(§2) Treatment of protein extracts with phosphatases. Protein extracts were prepared in the absence of phosphatase inhibitors from TMV-infected leaves at 8 hr after shifting plants from 32° C. to 22° C. or 48 hr after infection at 22° C. Samples containing 20 μg of protein were treated with either the serine/threonine-specific phosphatase, PP-2A1 (0.25 units in 30 μL; Upstate Biotechnology, Lake Placid, N.Y.), or the tyrosine-specific protein phosphatase, YOP (2 units in 30 μL; NEB), for 20 min at 30° C. in the presence or absence of a phosphatase inhibitor. The PP-2A1 inhibitor, okadaic acid, and YOP inhibitor, Na3VO4 were used at a concentration of 1 μM and 1 mM, respectively. After phosphatase treatment, kinase activity was detected by the in-gel kinase activity assay.

[1] = test system: WIPK-encoded 44-kD kinase; experiment: as above; type: biochemical, tobacco; details: okadaic acid 1 μM; Na3VO4 1 mM
Experimental: as §1, §2

His-tagged WIPK protein = experiment: Immunoblot analysis of Ab-p44N against a panel of His-tagged MAP kinases; type: binding, tobacco; details: 0.2 μg/mL competitor peptide
Experimental: Antibody production and immunoblot analysis. The peptides p44N (MADANMGAGGGQFPDFPS; SEQ ID NO: 2) and p48N ([…]; SEQ ID NO: 3), which correspond respectively to the unique N-termini of the WIPK and the SIPK proteins, were synthesized and conjugated to keyhole limpet hemacyanin (KLH) carrier. Polyclonal antisera were raised in rabbits and purified by affinity column chromatography (Zymed Laboratory, South San Francisco, Calif.).
For immunoblot analysis, 20 μg of total protein per lane were separated on 10% SDS-polyacrylamide gels, and the proteins were transferred to nitrocellulose membranes (Schleicher & Schuell, Inc., Keene, N.H.) by semi-dry electroblotting. […]
The 44-kD kinase activated by TWV in encoded by WIPK. […] The specificity of the Ab-p44N was assessed by immunoblot analysis against a panel of different MAP kinases as described above for Ab-p48N.

| Molecule | Activation of SIPK by treatment (SIPK) | Effect of phosphatase inhibitor on inactivation of SIPK by PP-2A1 and YOP (48-kD SIPK) | Effect of phosphatase inhibitor on inactivation of WIPK by PP-2A1 and YOP [1] | Effect of competitor peptide on binding of Ab-p44N to His-tagged WIPK protein (His-tagged WIPK protein) |
| --- | --- | --- | --- | --- |
| O=C(O)c1ccccc1O [SA, salicylic acid] | activated |  |  |  |
| C=C1[C@@H](O)[C@@H]2O[C@]3(CC[C@H](/C=C/[C@@H](C)[C@@H]4CC(C)=C[C@@]5(O[C@H](C[C@@](C)(O)C(=O)O)CC[C@H]5O)O4)O3)CC[C@H]2O[C@@H]1[C@@H](O)C[C@H](C)[C@H]1O[C@@]2(CCCCO2)CC[C@H]1C [okadaic acid] |  | prevented | prevented |  |
| [Na+].[Na+].[Na+].[O]=[V]([O-])([O-])[O-] [vanadate, Na3VO4] |  | prevented | prevented |  |
| MADANMGAGGGQFPDFPS [p44N] |  |  |  | blocked binding |
| MDGSGQQTDTMMSDAGAEQPPTAP [p48N, peptide corresponding to the unique N-terminus of SIPK] |  |  |  | not |
